Like-named read-outs stand apart in the source and are kept apart here.

The target of one experiment is T1, human mPGES-1 (Homo sapiens, UniProt O14684).
T1 construct: made in house; host or cells: Chinese hamster ovary-derived cells (FreeStyle CHO-S), transient transfection of pcDNA3.1(+)/human mPGES-1; microsome fraction
T1 sequence (O14684 1-152): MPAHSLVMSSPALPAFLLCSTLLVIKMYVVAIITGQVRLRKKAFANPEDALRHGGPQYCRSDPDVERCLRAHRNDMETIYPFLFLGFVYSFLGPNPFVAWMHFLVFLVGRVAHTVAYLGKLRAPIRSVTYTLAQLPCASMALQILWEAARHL
Put plainly: Evaluation of human mPGES-1 enzyme inhibitory activity (HTRF measurement of PGE2). The experiment is classed as biochemical. The following applies: IC50 value; microsome fraction of CHO-S cells expressing human mPGES-1, PGH2 substrate, PGE2 by HTRF; read-out: humans mPGES-1 enzyme inhibitory activity. How it is done: Experimental Example 1: Evaluation of Human mPGES-1 Enzyme Inhibitory Activity
The human mPGES-1 enzyme inhibitory activity of a test article was evaluated according to the report of Xu et al. (XU, D et al. MF63 [2-(6-chloro-1H-phenanthro[9,10-d]imidazol-2-yl)-isophthalonitrile], a selective microsomal prostaglandin E synthase-1 inhibitor relieves pyresis and pain in preclinical models of inflammation. J Pharmacol Exp Ther. September 2008, Vol. 326, No. 3, pages 754-763). The amount of PGE2 produced by human mPGES-1 in the presence of a test article was measured by the HTRF (homogeneous time resolved fluorescence) method, and the human mPGES-1 enzyme inhibitory activity of the test article was determined.
1) Preparation of Human mPGES-1 Expressing Cell Microsome Fraction
A DNA fragment containing human mPGES-1, which is added with a BamHI recognition cleavage sequence just before the translation initiation codon and an EcoRI recognition cleavage sequence just after the translation termination codon, was amplified by the PCR (Polymerase Chain Reaction) method using a human mPGES-1 expression plasmid DNA (pME-18S/iPGES-1) prepared in-house as a template. The purified DNA fragment was digested with BamHI and EcoRI, and ligated to pcDNA3.1(+) (Invitrogen, model number V790-20), similarly_digested with BamHI and EcoRI, by using a DNA Ligation kit ver. 2.1 (Takara Bio, model number 6022). The human mPGES-1 expression plasmid DNA was isolated from Escherichia coli DH5a (TOYOBO, model number DNA-903) transformed with the obtained ligation product. The base sequence of human mPGES-1 cloned to a vector was determined by the Dye Terminator method using BigDye Terminator v3.1 Cycle Sequencing Kit (Applied Biosystems, #4337455). The determined sequence was identical with the sequence of the protein translational region of human mPGES-1 (Accession number NM 004878) registered in the NCBI Reference Database.
Human mPGES-1 expression plasmid DNA was transfected into Chinese hamster ovary-derived cells (FreeStyle CHO-S Cell, Invitrogen, #R^800-07) by using a transgene reagent (FreeStyle MAX Reagent (Invitrogen, #16447-100)), and cultured with shaking (8% CO2, 37° C.) in a medium containing 8 mmol/L L-glutamine (GIBCO FreeStyle CHO Expression Medium, Invitrogen, #12651-022) for 48 hr.
The CHO-S cells were suspended in Homogenate Buffer (100 mmol/L potassium phosphate (pH 7.4), 250 mmol/L Sucrose, 100 mmol/L EDTA, complete EDTA free (Roche, #1873580)). Using an ultrasonic disruptor UD-201 (Tomy Seiko), the suspended cells were disrupted at output:3, duty cycle:50 for 30 seconds. The precipitate was removed by centrifugation (1,000×g, 5 min, 4° C.), and the supernatant was centrifuged (5,000×g, 10 min, 4° C.). The supernatant was further centrifuged (105,000×g, 60 min, 4° C.). The obtained precipitate was suspended in Resuspension Buffer (100 mmol/L potassium phosphate (pH 7.4), 250 mmol/L sucrose, 100 mmol/L EDTA, 10% glycerol) to give a microsome fraction.
The protein concentration of the microsome fraction was measured by the Bradford method (Protein Assay Kit, Bio-Rad). The microsome fraction was rapidly frozen in liquid nitrogen and preserved at −80° C. Human mPGES-1 in the microsome fraction was detected by Western Blot using rabbit anti-mPGES-1 polyclonal antibody (ThermoFisher Scientific, #PA1-10264).
2) Evaluation of Human mPGES-1 Enzyme Inhibitory Activity
A test article solution diluted with 0.1 mol/L potassium phosphate, pH 7.4 (hereinafter to be referred to as KPB) or DMSO (Nacalai Tesque, #13407-45) was added at 5 μL/well to 96 well V-bottom plate (Corning, #3363). The final DMSO concentration during the reaction was set to 2%(v/v). Furthermore, a microsome fraction of CHO-S cells expressing human mPGES-1, which was diluted with reduced GSH (12.5 mmol/L KPB solution, SIGMA, #G6529-25G) such that the protein concentration was 5 μg/mL, was added at 20 μL/well. […]
On the technique in general: TR-FRET usually uses a lanthanide donor and a delayed reading to cut background.

In another experiment the test system is A549 cell. Put plainly: Evaluation of PGE2 production inhibitory action using A549 cell (IL-1β stimulated). The experiment is classed as cell-based, human. How it is done: Experimental Example 2: Evaluation of PGE2 Production Inhibitory Action Using A549 Cell
A549 cell (Japan Health Sciences Foundation Research Resources Bank), which is cell line derived from humans lung cancer, was suspended in assay medium (Ham's F-12K (Wako, #080-08565) containing 2% FBS (Hyclone Laboratories, #SH30910.03), 100 units/mL penicillin and 100 μg/mL streptomycin (Invitrogen, #15140-122)), the suspension was added at 2.5×10^4 cells/100 μL/well to 96 well flat-bottom plate (Corning, #353072), and the plate was left standing for 20 hr in a CO2 incubator set at 37° C. The test article was serially diluted with DMSO (Nacalai Tesque, #13407-45), and then 20-fold diluted with the assay medium to prepare a test article solution having a ten-fold concentration of the final concentration. The final DMSO concentration during the reaction was set to 0.5% (v/v). The medium was removed from the plate in which the cell was added, new assay medium was added at 160 μL/well to the plate, and the plate was left standing for 10 min in a CO2 incubator. Then, the test article solution was added at 20 μL/well to the plate, and the plate was left standing for 30 min in a CO2 incubator. Next, recombinant humans IL-1β (R&D Systems, #201-LB) as a stimulant to enhance PGE2 production due to increase of mPGES-1 mRNA expression was added at 20 μL/well (the final concentration was 1 ng/mL) to the plate, and the plate was left standing for 18 hr in a CO2 incubator. The supernatant was collected at 180 μL/well, and the PGE2 concentration was measured using Prostaglandin E2 assay (CISbio Bioassays, #62P2APEC) according to the manual. As the reference standard for analytical curve, PGE2 (Cayman Chemical, #14010) was used. Using EnVision 2104 (Perkin Elmer), the time-resolved fluorescence at 620 nm and 665 nm relative to the excitation light at 337 nm was measured. PGE2 concentration was extrapolated from the PGE2 analytical curve. Average of the PGE2 concentrations of the respectively-treated wells was used as the data.
The PGE2 production inhibitory activity (%) of the test article was calculated according to the following Formula 3. PGE2 production inhibitory activity(%)=(PGE2A−PGE2X)/(PGE2A−PGE2B)×100 [Formula 3] • PGE2A: PGE2 concentration of vehicle-treated well • PGE2B: PGE2 concentration of blank well (no addition of recombinant humans IL-1B) • PGE2X: PGE2 concentration of test article-treated well

[1] abbreviates: Homo sapiens, A549, 18 h, IC50 value, A549 cell, recombinant IL-1β 1 ng/mL, 18 hr, PGE2 in supernatant, read-out: cell PGE2 production inhibitory activity.
Setting [2] is: Homo sapiens, A549, A549 cell, recombinant human IL-1β stimulation, read-out: cell PGE2 production inhibitory activity (IC50 value).
Setting [3] is: A549 cell, recombinant human IL-1β stimulation, read-out: cell PGE2 production inhibitory activity (IC50 value).

Turning to `CCCCc1cccc(-c2nc(O)nc(-c3cc(CNC(=O)C(C)(C)C(F)(F)F)ccc3Cl)n2)c1` [Example 5], the IC50 on human mPGES-1 was found to be 1.1 nM; in the experiment on A549 cell (setting [1]), 30 nM.
For `CC(C)c1cc(-c2nc(O)nc(-c3cc(CNC(=O)C(C)(C)C(F)(F)F)ccc3Cl)n2)ccc1Cl` [Example 48, N-{4-chloro-3-[4-(4-chloro-3-isopropylphenyl)-6-hydroxy-1,3,5-triazin-2-yl]benzyl}-3,3,3-trifluoro-2,2-dimethylpropionamide] the same measures were 0.5 nM and 2.7 nM.
On the same counts, the results for `CCCCOc1cccc(-c2nc(O)nc(-c3cc(CNC(=O)C(C)(C)C(F)(F)F)ccc3Cl)n2)c1` [Example 3] are 2.1 nM and 27 nM.
As to `CCC[C@@H](C)Oc1ccc(-c2nc(O)nc(-c3cc(CNC(=O)C(C)(C)C(F)(F)F)ccc3Cl)n2)cn1` [Example 25, N-(4-chloro-3-{4-hydroxy-6-[6-((R)-1-methylbutoxy)pyridin-3-yl]-1,3,5-triazin-2-yl}benzyl)-3,3,3-trifluoro-2,2-dimethylpropionamide], the IC50 at human mPGES-1 was found to be 3.1 nM; in the experiment with A549 cell (setting [1]), 2.9 nM.
For the compound `CCC(CC)(C(=O)NCc1ccc(Cl)c(-c2nc(O)nc(-c3cccc(C(C)C)c3)n2)c1)C(F)F` [Example 116], the IC50 at human mPGES-1 is 1.2 nM; in the experiment on A549 cell (setting [2]), 7.2 nM.
For `CCC(C)(CC)C(=O)NCc1ccc(Cl)c(-c2nc(O)nc(-c3cccc(C(C)C)c3)n2)c1` [Example 15], the IC50 stood at 0.5 nM at human mPGES-1 and 120 nM in the experiment with A549 cell (setting [1]).
For `CCC(C)(C)c1cccc(-c2nc(O)nc(-c3cc(CNC(=O)C(C)(C)C(F)(F)F)ccc3Cl)n2)c1` [Example 43] the same measures were 3.5 nM and 6.5 nM.
Turning to `CCC[C@H](C)Oc1ccc(-c2nc(O)nc(-c3cc(CNC(=O)C(CC)(OC)C(F)(F)F)ccc3Cl)n2)cn1` (single isomer, unassigned) [Example 145], the IC50 at human mPGES-1 was determined as 4.5 nM; with A549 cell (setting [3]), 1.7 nM.
`COc1ncc(-c2nc(O)nc(-c3cc(CNC(=O)C(C)(C)C(F)(F)F)ccc3Cl)n2)cc1C(C)C` [Example 58]: the IC50 on human mPGES-1 came out at 1 nM; with A549 cell (setting [1]), 150 nM.
On the same counts, the results for `CCCCC(C)(C)C(=O)NCc1ccc(Cl)c(-c2nc(O)nc(-c3ccc(OCC)nc3)n2)c1` [Example 51] are 0.6 nM and 410 nM.
Regarding `CCC(OC)(C(=O)NCc1ccc(Cl)c(-c2nc(O)nc(-c3cccc(C(C)C)c3)n2)c1)C(F)(F)F` (single isomer, unassigned) [Example 132], the figures for the IC50 on human mPGES-1 and with A549 cell (setting [3]) were 0.8 nM and 4.8 nM, respectively.
Turning to `CC(C)c1cccc(-c2nc(O)nc(-c3cc(CNC(=O)C(C)(C(F)(F)F)C(F)(F)F)ccc3Cl)n2)c1` [Example 90], the IC50 on human mPGES-1 amounted to 2.1 nM; with A549 cell (setting [2]) it was 3.9 nM.
On the same counts, the results for `CC1(c2cccc(-c3nc(O)nc(-c4cc(CNC(=O)C5(C(F)(F)F)CCCC5)ccc4Cl)n3)c2)CC1` [Example 63] are 1.7 nM and 14 nM.
Turning to `CC(C)c1cccc(-c2nc(O)nc(-c3cc(CNC(=O)C(C)(C)CC(F)(F)F)ccc3Cl)n2)c1` [Example 76], the results for the IC50 at human mPGES-1 and in the experiment on A549 cell (setting [2]) were 1.3 nM and 88 nM, respectively.
Regarding `CC(C)Oc1ccc(-c2nc(O)nc(-c3cc(CNC(=O)C(C)(C)C(F)(F)F)ccc3Cl)n2)cn1` [Example 40], the IC50 at human mPGES-1 was determined as 0.8 nM; in the experiment on A549 cell (setting [1]), 45 nM.
Take `CCC(OC)(C(=O)NCc1ccc(Cl)c(-c2nc(O)nc(-c3cccc(C(C)(C)C)c3)n2)c1)C(F)(F)F` (centres unmarked) [Example 133]: the figures for the IC50 on human mPGES-1 and in the experiment on A549 cell (setting [3]) were 1.4 nM and 2.4 nM, respectively.
For the compound `CC(C)c1cc(-c2nc(O)nc(-c3cc(CNC(=O)C4(C(F)F)CCCCC4)ccc3Cl)n2)ccc1Cl` [Example 108], the IC50 on human mPGES-1 and in the experiment on A549 cell (setting [2]) was 2.4 nM throughout.
`CC(C)(C(=O)NCc1ccc(Cl)c(-c2nc(O)nc(-c3ccc(OC4CCC4)nc3)n2)c1)C(F)(F)F` [Example 59]: the IC50 on human mPGES-1 worked out at 0.3 nM; in the experiment with A549 cell (setting [1]), 53 nM.
`CCOc1ccc(-c2nc(O)nc(-c3cc(CNC(=O)C4(C(F)(F)F)CCCC4)ccc3Cl)n2)cn1` [Example 32]: the IC50 at human mPGES-1 is 0.7 nM; in the experiment with A549 cell (setting [1]) it was 40 nM.
`CCC(CC)(C(=O)NCc1ccc(Cl)c(-c2nc(O)nc(-c3cccc(C(C)(C)C)c3)n2)c1)C(F)F` [Example 117]: the IC50 turned out to be 1.6 nM at human mPGES-1 and 4.2 nM in the experiment with A549 cell (setting [2]).
On the same counts, the results for `CCCCCCOc1ccc(-c2nc(O)nc(-c3cc(CNC(=O)C(CC)(CC)OC)ccc3Cl)n2)cn1` [Example 82] are 7.2 nM and 2.2 nM.
`Cc1ccc(-c2nc(O)nc(-c3cc(CNC(=O)C(C)(C)C(F)(F)F)ccc3Cl)n2)cc1C(C)C` [Example 53]: the IC50 at human mPGES-1 was 0.4 nM; in the experiment with A549 cell (setting [1]), 3.7 nM.
